Reference: patent US20240382564A1, “Methods and Compositions for Treating Muscular Dystrophy and Memory Impairment” (Allysta Pharmaceuticals, Inc., priority 2023, published 2024)
Where no end group is shown, it is not given here. [ ]: non-standard residue; d: D form. Nva = CCC[C@H](N)C(=O)O

Columns and labels:
[1] = test system: D2.mdx mice; assay: In-vitro diaphragm force; type: in vivo, mouse
Experimental: D2.mdx mice were treated with ALY688 at two different dosages; high dose (HD; 15 mg/kg body weight/day) or low dose (LD; 3 mg/kg body weight/day) dissolved in saline. A separate group of mice were treated with saline alone (VEH, vehicle). Treatment was provided via subscapular subcutaneous injections from 7 days of age to 28-30 days. […] At 28-30 days of age, mice were anaesthetized with isoflurane vaporized in medical air (21% oxygen) at a 2 L/min flow rate. Due to tissue limitations in limb muscle, certain measures were performed separately in tibialis anterior and quadriceps across several phases of breeding. […]
A silk suture was attached to the central tendons and the ribs and secured in a bath with oxygenated Ringers solution containing (in mM) 121 NaCl, 5 KCl, 1.8 CaCl2, 0.5 MgCl2, 0.4 NaHPO4, 24 NaHCO3, 5.5 glucose and 0.1 EDTA; pH 7.3 (95% O2/5% CO2) maintained at 25° C. with ribs secured to the force transducer with an s-hook and central tendon to the lever arm. […] After the force-frequency protocol was assessed, a 5 minute rest period was provided before a fatiguing protocol was performed (70 Hz for 350 ms every 2 seconds for 5 minutes). Recovery from fatigue was assessed at 5-, 10- and 15-minutes post fatigue at the frequency that elicited maximum force in the force-frequency protocol. […]

[2] = test system: D2.mdx mice; assay: Hippocampal western blotting; type: in vivo, mouse; details: hippocampus
Experimental: Male D2.mdx mice originated from a colony maintained at York University (Toronto, Canada) and sourced from Jackson Laboratories (Stock Number 013141, Bar Harbor, United States). Mice were treated daily from days 7 to 28 of age with ALY688 at 15 mg/kg b.w. (D2.mdx-ALY688) or saline control (D2.mdx-VEH). This age was chosen given it captures an early stage of disease progression in cardiac and skeletal muscle. Mice were sacrificed 20-24 hr after the last dose. Breeding of wildtype mice was unsuccessful. Instead, three-week-old wildtype DBA/2J WT mice (D2A) were obtained from Jackson Laboratories (Stock number 000671, Bar Harbor, United States) and allowed to acclimatize for one week before sacrifice. Mice were housed in standard 12:12-hr light:dark cycles and were allowed access to standard rodent chow and water ad libitum. 4 days prior to sacrifice, all groups underwent novel object recognition acclimatization and testing as described below. Mice were anesthetized under 5% isoflurane vaporized in medical air (21% oxygen) at a flow rate of 2 L/min and then maintained at 2-3% prior to euthanasia by exsanguination. Muscles were removed and used for another investigation (under review at the time of this submission). The right and left hippocampus were then quickly dissected from the brain with a portion placed immediately into ice-cold BIOPS, containing (in mM): 50 MES Hydrate, 7.23 K2EGTA, 2.77 CaK2EGTA, 20 imidazole, 0.5 dithiothreitol, 20 taurine, 5.77 ATP, 15 PCr, and 6.56 MgCl2·6H2O (pH 7.1) or flash-frozen in liquid nitrogen and stored at −80° C. for RNA isolation and western blotting. All experiments and procedures were approved by the Animal Care Committee at York University (AUP Approval Number 2016-18) in accordance with the Canadian Council on Animal Care.
Hippocampus tissue (collected from the same mice utilized in high-resolution respirometry experiments) was homogenized in cold lysis buffer containing (in mM; 20 Tris/HCl, 150 NaCl, 1 EDTA, 1 EGTA, 1% Triton X-100, 2.5 Na4O7P2, 1 Na3VO4, pH 7.0) supplemented with protease and phosphatase inhibitors (Sigma) according to the protocol established in Hughes MC et al. “Early myopathy in Duchenne muscular dystrophy is associated with elevated mitochondrial H2O2 emission during impaired oxidative phosphorylation.” Journal of Cachexia, Sarcopenia and Muscle. 2019; 10:643-61. […] For detection of total AMPK, p-AMPK, p-ULK1, p62, and LC3BII/I, proteins were transferred to a 0.2 μm low fluorescence polyvinylidene difluoride membrane using a Bio-Rad Trans Blot Turbo. […] The same washing protocol was repeated and then membranes were detected using infrared imaging (LI-COR CLx; LI-COR, Lincoln, NE, USA) and quantified by densitometry (ImageJ, http://imagej.nih.gov/ij/). […]

Q: How did the “muscle force production, change” value ([1]; diaphragm strips, both doses) turn out when [dN]IP[Nva]LY[dS]FA[dS]-NH2 [ALY688] was run?
A: −2.3% to −43.0

Q: What about the “recovery from fatigue, change” value ([1]; diaphragm, high dose, printed range also covers quadriceps low dose) of the same substance?
A: −5.3% to −50.9

Q: And the “degree of AMPK activation (p-AMPK or p-AMPK/AMPK)” value [2]?
A: not altered

Q: What about the “total AMPK protein” value [2] of the same substance?
A: lower

Q: What about the “protein content of total raptor” value ([2]; increased in D2.mdx vs WT) of the same substance?
A: completely prevented the increases

Q: What about the “protein content of total tau” value ([2]; increased in D2.mdx vs WT) of the same substance?
A: completely prevented the increases
